{
  "source": "patent US20110166173A1",
  "about": "“3,5-DISUBSTUTUTED 1H-PYRROLO [2,3-B] PYRIDINES AS JNK INHIBITORS” (Eisai Co., Ltd., priority 2004, published 2011)",
  "data": [
    {"target": "JNK3 (Homo sapiens, UniProt P53779)", "sequence (P53779 whole entry)": "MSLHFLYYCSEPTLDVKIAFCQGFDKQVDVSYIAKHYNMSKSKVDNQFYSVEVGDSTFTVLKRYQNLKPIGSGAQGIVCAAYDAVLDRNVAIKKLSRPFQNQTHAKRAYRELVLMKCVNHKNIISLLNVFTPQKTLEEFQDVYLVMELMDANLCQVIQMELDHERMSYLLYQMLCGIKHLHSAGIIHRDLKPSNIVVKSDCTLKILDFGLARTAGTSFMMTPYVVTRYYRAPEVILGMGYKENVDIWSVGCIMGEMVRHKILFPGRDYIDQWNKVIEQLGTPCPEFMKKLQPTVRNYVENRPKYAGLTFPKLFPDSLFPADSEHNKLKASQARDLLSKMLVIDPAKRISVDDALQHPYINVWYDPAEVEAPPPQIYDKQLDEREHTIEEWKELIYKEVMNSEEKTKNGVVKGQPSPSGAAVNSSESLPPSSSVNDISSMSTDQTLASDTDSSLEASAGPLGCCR", "assay": "JNK3 SPA assay (phosphorylation of GST-c-Jun)", "type": "biochemical", "conditions": "Scintillation proximity assay, GST-c-Jun substrate, 3.33 μM ATP, 30 minutes at room temperature", "description": "JNK1, JNK2, JNK3—SPA Assay • 1. Compound is dissolved in DMSO to a convenient concentration and this is diluted in 10% DMSO to a five times concentrate of the desired starting concentration (frequently 1:100). • 2. 10 μl of 500 mM EDTA is added to alternative wells of the Opti-plate row, which will receive kinase reaction plus DMSO. This creates the negative control. • 3. For the JNK2 and JNK3 assay, compounds are prepared in six 2-fold dilutions with water and each concentration is tested in duplicate. For the JNK1 assay compounds are prepared in four 5-fold dilutions with water which are tested in triplicate. Controls are treated identically. • 4. 20 μl per well of each compound concentration is transferred to an Opti-plate, in duplicate. • 5. 30 μl (JNK2/3 SPA) or 50 μl (JNK1 SPA) of substrate solution (25 mM HEPES pH 7.5, 10 mM magnesium acetate with 3.33 μM ATP (JNK2/3) or 2 μM ATP (JNK1), approximately 7.5 kBq [γ-^33P] ATP, GST-c-Jun, in water) is added to each well. • 6. 50 μl (JNK2/3 SPA) or 30 μl (JNK1 SPA) of kinase solution (JNK in 25 mM HEPES pH 7.5, 10 mM Mg Acetate) is added to each well.\n• 7. The plate is incubated for 30 minutes at room temperature. • 8. 100 μl of bead/stop solution is added to each well (5 mg/ml glutathione-PVT-SPA beads, 40 mM ATP in PBS). • 9. Plates are sealed and incubated for 30 minutes at room temperature, centrifuged for 10 minutes at 2500 g and counted. • 10. The IC50 values are calculated as the concentration of the compound being tested at which the phosphorylation of c-Jun is decreased to 50% of the control value.", "units": {"IC50": "nM"}, "values": [
      {"smiles": "O=C(Nc1ccc2[nH]ccc2c1)c1cnc2[nH]cc(-c3ccoc3)c2c1", "IC50": "< 1000"},
      {"smiles": "O=C(c1cnc2[nH]cc(-c3ccoc3)c2c1)N1CCc2ccccc2C1", "IC50": "< 500"},
      {"smiles": "O=C(c1cnc2[nH]cc(-c3ccoc3)c2c1)N1CCCC1", "IC50": "< 500"},
      {"smiles": "O=C(NCCc1c[nH]c2ccccc12)c1cnc2[nH]cc(-c3ccoc3)c2c1", "IC50": "< 500"},
      {"smiles": "CN(C)c1ccc(C(=O)c2cnc3[nH]cc(-c4cnn(C)c4)c3c2)cc1", "IC50": "< 500"}
    ]}
  ]
}
